A short description of experiment [1]: Cytotoxicity against human BGC823 cells after 48 hrs by MTT assay. The class given is functional, cell-based. To be noted: BGC-823, 48 h.
The subject of the next experiment is HCT-116. Put plainly: Cytotoxicity against human HCT116 cells after 48 hrs by MTT assay. The class given is functional, cell-based. The following applies: HCT-116, 48 h.
A further experiment concerns HT-29. Put plainly: Cytotoxicity against human HT-29 cells after 48 hrs by MTT assay. It is filed as functional, cell-based. To be noted: HT-29, 48 h.
The test system of experiment [2] is MCF7. The experiment can be described thus: Cytotoxicity against human MCF7 cells after 48 hrs by MTT assay. The class given is functional, cell-based. The following applies: for IC50: MCF7, 48 h.
Experiment [3] can be described thus: Cytotoxicity against human MCF10A cells after 48 hrs by MTT assay. The class given is cell-based. To be noted: MCF-10A.
The test system of experiment [4] is MCF7. Put plainly: Cytotoxicity against human MCF7 cells at 1 uM by MTT assay. It is filed as functional, cell-based. To be noted: TDE = time-dependent effect.
In experiment [5] the test system is MCF7. The experiment can be described thus: Induction of apoptosis in human MCF7 cells assessed as bubble-shaped regions at 20 uM after 36 hrs by phase-contrast microscopic analysis. It is filed as functional, cell-based.
The subject of experiment [6] is MCF7. Put plainly: Induction of apoptosis in human MCF7 cells assessed as condensed chromatin in nucleus at 20 uM after 36 hrs by DAPI staining. It is filed as functional, cell-based.
In experiment [7] the test system is MCF7. The experiment can be described thus: Cell cycle arrest in human MCF7 cells assessed as accumulation at subG1 phase at 20 uM after 12 to 36 hrs using propidium-iodide staining by flow-cytometry (reference value: 0.41%). The class given is functional.
Experiment [8] relates to MCF7. The experiment can be described thus: Cell cycle arrest in human MCF7 cells assessed as accumulation at M1 phase at 20 uM after 12 to 36 hrs using propidium-iodide staining by flow-cytometry (reference value: 0.95%). The class given is functional.

Active and inactive are the calls of the source. The calls are words filed in the database; no cut-off is given here. Some results are limits rather than exact numbers.

On to `COC(C)(C)CCC[C@@](O)(CO[C@@H]1O[C@H](CO)[C@@H](O)[C@H](O)[C@H]1O)[C@H]1CC[C@]2(C)[C@@H]1CC[C@@H]1C3=C(CC[C@]12C)C(C)(C)[C@@H]1CC[C@H]3O1`, for which the IC50 was over 100 µM in [1]; 55.7 µM with HCT-116; 28.1 µM in the experiment on HT-29; 6.85 µM in the experiment with MCF7 [2]; over 100 µM in [3]. Also, the Activity entry with MCF7 [2] was “Dose-dependent effect”; in the experiment with MCF7 [4] it was “tde”; with MCF7 [7], 17.09%; in the experiment on MCF7 [8], 74.59%. In addition, the outcome in the experiment on MCF7 [5] and in the experiment on MCF7 [6] was Active.
Consider `CC(C)(O)CCC[C@@H](CO[C@@H]1O[C@H](CO)[C@@H](O)[C@H](O)[C@H]1O)[C@H]1CC[C@]2(C)[C@@H]1CC[C@@H]1C3=C(CC[C@]12C)C(C)(C)[C@@H]1CC[C@H]3O1`, for which the IC50 is over 100 µM in [1]; over 100 µM in the experiment on HCT-116; 32 µM in the experiment on HT-29; 21.2 µM in the experiment on MCF7 [2]; over 100 µM in experiment [3].
`CC(C)(O)CC/C=C(/CO[C@@H]1O[C@H](CO)[C@@H](O)[C@H](O)[C@H]1O)[C@@H]1CC[C@]2(C)[C@@H]1CC[C@@H]1[C@@]3(C)CC[C@H](O)C(C)(C)[C@@H]3CC[C@]12C`: the IC50 in experiment [1] is over 100 µM; in the experiment on HCT-116, 66.5 µM; in the experiment on HT-29 it was 30.5 µM; in the experiment on MCF7 [2], 46.3 µM; in experiment [3] it was over 100 µM.
For the compound `CC(C)(O)CC/C=C(/CO[C@@H]1O[C@H](CO)[C@@H](O)[C@H](O)[C@H]1O)[C@H]1CC[C@]2(C)[C@@H]1CC[C@@H]1C3=C(CC[C@]12C)C(C)(C)[C@@H]1CC[C@H]3O1`, the IC50 in experiment [1] was over 100 µM; with HCT-116, over 100 µM; with HT-29 it was 26.1 µM; with MCF7 [2] it was 14.3 µM; in experiment [3], over 100 µM.
Consider `CC(C)(O)CC/C=C(/CO[C@@H]1O[C@H](CO)[C@@H](O)[C@H](O)[C@H]1O)[C@H]1CC[C@]2(C)[C@@H]1CC[C@@H]1[C@@]3(C)CC[C@H](O)C(C)(C)[C@@H]3CC[C@]12C`, for which the half-maximal inhibitory concentration (IC50) in [1] was over 100 µM; with HCT-116 it was 67.3 µM; in the experiment with HT-29, 33.6 µM; in the experiment on MCF7 [2], 52.4 µM; in [3], over 100 µM.

For the origin of these results see ChEMBL document CHEMBL3600332, “Novel dammarane-type triterpenes isolated from hydrolyzate of total Gynostemma pentaphyllum saponins” (Bioorg Med Chem Lett, 2015).
